Structures can show the parent of a compound that is named as a salt.

Sequence of human Mnk2a (Q9HBH9 whole entry): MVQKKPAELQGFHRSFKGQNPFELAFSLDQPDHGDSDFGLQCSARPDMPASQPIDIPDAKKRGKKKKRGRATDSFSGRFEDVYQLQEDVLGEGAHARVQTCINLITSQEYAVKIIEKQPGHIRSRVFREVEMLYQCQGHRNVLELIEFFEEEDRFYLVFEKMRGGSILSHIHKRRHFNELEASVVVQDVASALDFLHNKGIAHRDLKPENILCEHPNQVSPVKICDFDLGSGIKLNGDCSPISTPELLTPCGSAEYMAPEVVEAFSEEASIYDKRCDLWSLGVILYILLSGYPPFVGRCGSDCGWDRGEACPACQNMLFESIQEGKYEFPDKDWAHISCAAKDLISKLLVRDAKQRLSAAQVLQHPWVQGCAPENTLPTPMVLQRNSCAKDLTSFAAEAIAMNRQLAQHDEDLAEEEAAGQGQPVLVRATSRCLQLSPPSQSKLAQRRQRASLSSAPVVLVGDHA

This assay has as its target human Mnk2a (Homo sapiens (Human), UniProt Q9HBH9). In words: Mnk2a in vitro kinase assay (indirect competitive fluorescence polarization). It is filed as biochemical. The following applies: pre-activated GST-Mnk2a 2.5 nM, 20 μM ATP, 30 μM substrate peptide; read-out: MNK2 IC50. As for the experimental part:
Inhibitory potency of compounds against Mnk1, Mnk2a and other kinases was assessed with assays based on a format known to those skilled in the art as the indirect (competitive) fluorescence polarization. The assay detection system comprises a small fluorophore-labeled phospho-peptide (termed ligand) bound to a phospho-specific antibody. The product generated by the kinase reaction competes with the ligand for antibody binding. Based on the larger molecular volume of the bound ligand, which results in a lower rotation rate in solution, its emitted light has a higher degree of polarization than the one from the free ligand.
In brief, the open reading frames of human Mnk1 and Mnk2a were amplified from cDNA using the forward/reverse primer pairs
(utilized restriction sites underlined), respectively, and cloned into the BamHI and SalI sites of the vector pGEX-4T1 (Amersham, Sweden, cat. no. 27-4580-01). These constructs allow prokaryotic expression of Mnk1 or Mnk2a as fusion protein with a N-terminal glutathione S-transferase (GST) tag, referred to as GST-Mnk1 or GST-Mnk2a. The following expression and purification procedure was identical for GST-Mnk1 and GST-Mnk2a, referring in general to GST-Mnk, when not distinguishing between the two isoforms. Expression of GST-Mnk was in E. coli BL21 (Merck Biosciences, Germany, cat. no. 69449). Cells were grown in LB-Bouillon (Merck, Germany, cat. no. 1.10285) supplemented with 100 μg/ml ampicillin (Sigma, Germany, cat. no. A9518) at 37° C. […] Cells harvested by centrifugation were resuspended in 10 ml lysis buffer (50 mM tris(hydroxymethyl)aminomethane hydrochloride (Tris/HCl, Sigma, Germany, cat. no. T5941) pH 7.5, 300 mM sodium chloride (NaCl, Sigma, Germany, cat. no. S7653), 5% (w/v) glycerol (Sigma, Germany, cat. no. G5516), 3 mM DTT dithiotreitol (DTT, Sigma, Germany, cat. no. D9779)) per gram wet weight cell pellet. Lysates were prepared by disruption of cells with a sonifier and subsequent clearing by centrifugation at 38000 g for 45 min at 4° C.
The lysate was applied to a GSTPrep FF 16/10 column (Amersham, Sweden, cat. no. 17-5234-01) equilibrated with lysis buffer. Removal of unbound material was with 3 column volumes (CV) lysis buffer. Elution was with 2 CV of elution buffer (50 mM Tris/HCl pH 7.5, 300 mM NaCl, 5% (w/v) glycerol, 20 mM glutathione (Sigma, Germany, cat. no. G4251)). Peak fractions were pooled and the protein transferred into storage buffer (50 mM Tris/HCl pH 7.5, 200 mM NaCl, 0.1 mM ethylene glycol[…] bis(2-aminoethylether)-N,N,N′,N′-tetraacetic acid (EGTA, Aldrich, Germany, cat. no. 23, 453-2), 1 mM DTT, 10% (w/v) glycerol, 0.5 M sucrose (Sigma, Germany, cat. no. S0389) by gel filtration on a PD10 desalting column (Amersham, Sweden, cat. no. 17-0851-01). Aliquots were shock frozen in liquid nitrogen and stored at −80° C.
Activation of Mnk1 and Mnk2a was at a concentration of 2.5 μM of either purified GST-Mnk1 or GST-Mnk2a by incubation with 150 nM pre-activated NHis-ERK2 (see ERK2 assay for preparation) and 50 μM adenosine triphosphate (ATP, Sigma, cat. no. A2699) in a buffer comprising 20 mM N-(2-hydroxyethyl)piperazine-N′-(2-ethanesulfonic acid) (HEPES, Fluka, Germany, cat. no 54459)/potassium hydroxide (KOH, Roth, Germany, cat. no 6751.1) pH 7.4, 10 mM magnesium chloride (MgCl2, Sigma, Germany, cat. no. M2670), 0.25 mM DTT, 0.05% (w/v) polyoxyethylene 20 stearylether (Brij 78, Sigma, Germany, cat. no. P4019) (HMDB buffer) for 45 min at 30° C. After the incubation, the preparation was aliquoted into single-use samples, shock frozen in liquid nitrogen, stored at −80° C. and utilized for Mnk1 or Mnk2a kinase assays as detailed below.
The serine residue phosphorylated by Mnk kinases is underlined.
In general terms: In fluorescence polarisation assays a small probe gives low polarisation when free and higher when bound to something large.
Turning to `COC(=O)c1sc2ncnc(Nc3ccc(F)cc3OC(CN)CNS(C)(=O)=O)c2c1C` (stereo not shown) [Compound 19-2, Methyl 4-(2-(1-amino-3-(methyl-sulfonamido)-propan-2-yloxy)-4-fluoro-phenylamino)-5-methylthieno[2,3-d]pyrimidine-6-carboxylate trifluoroacetate], the IC50 amounted to 1.17 µM.

In the case of `COC(=O)c1sc2ncnc(Nc3ccc(F)cc3OC(C)CNS(C)(=O)=O)c2c1C` (stereo not shown) [Compound 3-1, Methyl 4-(4-fluoro-(2-(1-methylsulfonamido)propan-2-yloxy)phenylamino)-5-methyl-thieno[2,3-d]pyrimidine-6-carboxylate], the IC50 stood at 0.041 µM. Consider `Cc1c(C(N)=O)sc2ncnc(Nc3ccc(F)cc3OCC3CC3(F)F)c12` (stereo not shown) [Compound 32-21], for which the IC50 was determined as 0.008 µM.

For `COCC(CF)Oc1cc(F)ccc1Nc1ncnc2sc(C(=O)NCCCN(C)C)c(C)c12` (stereo not shown) [Compound 32-24], the IC50 turned out to be 0.025 µM. Next, `CCNC(=O)C(C)Oc1cc(F)ccc1Nc1ncnc2sc(C(=O)NCCCN(C)C)c(C)c12` (stereo not shown) [Compound 40, 4-[2-(1-Ethylcarbamoyl-ethoxy)-4-fluoro-phenylamino]-5-methyl-thieno[2,3-d]pyrimidine-6-carboxylic acid (3-dimethylamino-propyl)-amide]: 0.02 µM; `Cc1c(C(=O)NCCCO)sc2ncnc(Nc3cccnc3OC(C)C)c12` [Compound 36-11, N-(3-Hydroxypropyl)-4-(2-isopropoxypyridin-3ylamino)-5-methylthieno[2,3-d]pyrimidine-6-carboxamide]: 0.045 µM; `Cc1c(C(N)=O)sc2ncnc(Nc3ccc(F)cc3OC(C)CNCCC(F)(F)F)c12` (stereo not shown) [Compound 8-2]: 0.064 µM. For `COCC(CF)Oc1cc(F)ccc1Nc1ncnc2sc(C(=O)O)c(C)c12` (stereo not shown) [Compound 32-6] the value was 0.023 µM. Next, `Cc1c(C(=O)O)sc2ncnc(Nc3ccc(F)cc3OC(C)CC(C)(C)O)c12` (stereo not shown) [Compound 20-2, 4-(4-fluoro-2-(4-hydroxy-4-methylpentan-2-yloxy)phenylamino)-5-methyl-thieno[2,3-d]pyrimidine-6-carboxylic acid]: 0.025 µM; `COC(=O)c1sc2ncnc(Nc3ccc(F)cc3OC(C)CCNC(C)=O)c2c1C` (stereo not shown) [Compound 13-2, Methyl 4-(2-(4-acetamidobutan-2-yloxy)-4-fluorophenyl-amino)-5-methyl-thieno[2,3-d]pyrimidine-6-carboxylate]: 0.471 µM; `COC(=O)c1sc2ncnc(Nc3ccc(F)cc3OC(C)CCN)c2c1C` (stereo not shown) [Compound 12, Methyl 4-(2-(4-aminobutan-2yloxy)-4-fluorophenylamino)-5-methyl-thieno[2,3-d]pyrimidine-6-carboxylate hydrochloride]: 0.052 µM. As for `Cc1c(C(=O)N[C@@H]2C[C@H]2NC(=O)OC(C)(C)C)sc2ncnc(Nc3ccc(F)cc3OC(CF)CF)c12` [Compound 23-5, Tert-butyl (1R,2R)-2-(4-2(1,3-difluoro-propan-[2,3-d]pyrimidine-6-carboxamido)cyclopropyl carbamate], the concentration for half-maximal inhibition (IC50) worked out at 0.013 µM. Take `Cc1c(C(=O)NCCO)sc2ncnc(Nc3ccc(F)cc3OC(C)C(=O)NCCN)c12` (stereo not shown) [Compound 59, 4-{2-[1-(2-Amino-ethylcarbamoyl)-ethoxy]-4-fluoro-phenylamino}-5-methyl-thieno[2,3-d]pyrimidine-6-carboxylic acid (2-hydroxy-ethyl)amide]: the IC50 turned out to be 0.029 µM.

As for `Cc1c(C(N)=O)sc2ncnc(Nc3cccnc3OCC(F)F)c12` [Compound 30-3, 4-(2-(2,2-Difluoroethoxy)pyridin-3-ylamino)-5-methyl-thieno[2,3-d]pyrimidine-6-carboxamide], the half-inhibitory concentration (IC50) came to 0.018 µM.

As to `Cc1c(C(=O)NCCCN2CCCC2)sc2ncnc(Nc3cccnc3OC(C)C)c12` [Compound 36-1, 4-(2-Isopropoxypyridin-3-ylamino)-5-methyl-N-(3-(pyrrolidin-1-yl)propyl)thieno[2,3-d]pyrimidine-6-carboxamide], the IC50 is 0.035 µM.

Take `Cc1c(C(=O)NCCO)sc2ncnc(Nc3ccc(F)cc3OCC3CC3(F)F)c12` (stereo not shown) [Compound 32-20]: the IC50 is 0.019 µM.

In the case of `COCC(C)Oc1ncccc1Nc1ncnc2sc(C(=O)NCCCN(C)C)c(C)c12` (stereo not shown) [Compound 28-5, N-(3-(di-methylamino)propyl)-4-(2-(1-methoxy-propan-2-yloxy)pyridin-3-ylamino)-5-methlthieno-[2,3-d]pyrimi-dine-6-carboxamide hydrochloride], the IC50 amounted to 0.093 µM. `COC(=O)c1sc2ncnc(Nc3ccc(F)cc3OC(C)CCNC(=O)C(C)C)c2c1C` (stereo not shown) [Compound 13-3, Methyl 4-(4-fluoro-2-(4-isobutyramido-butan-2-yloxy)-phenylamino)-5-methylthieno[2,3-d]pyrimidine-6-carboxylate]: the IC50 turned out to be 0.677 µM. Next, `Cc1c(C(=O)NCc2cnco2)sc2ncnc(Nc3cccnc3OC(C)C)c12` [Compound 36-8, 4-(2-Isopropoxypyridin-3ylamino)-5-methyl-N-(oxazol-5-ylmethyl)thieno[2,3-d]pyrimidine-6-carboxamide]: 0.019 µM. Consider `Cc1c(C(=O)NCC2COCCN2)sc2ncnc(Nc3cccnc3OC(C)C)c12` (stereo not shown) [Compound 36-14, 4-(2-Isopropoxypyridin-3ylamino)-5-methyl-N-(morpholin-3-ylmethyl) thieno[2,3-d]pyrimidine-6-carboxamide], for which the IC50 is 0.064 µM.

Take `Cc1c(C(=O)NCCCN2CCCC2)sc2ncnc(Nc3ccc(F)cc3OC(C)CC(F)(F)F)c12` (stereo not shown) [Compound 32-42]: the IC50 came to 0.012 µM. For `COCC(C)Oc1cc(F)ccc1Nc1ncnc2sc(C(N)=O)c(C)c12` (stereo not shown) [Compound 32-37] the value was 0.008 µM.

Consider `Cc1c(C(=O)O)sc2ncnc(Nc3ccc(F)cc3OCCO)c12` [Compound 32-9], for which the IC50 amounted to 0.013 µM. For `Cc1c(C(=O)NCCO)sc2ncnc(Nc3cccnc3OC(C)C(F)(F)F)c12` (stereo not shown) [Compound 21-8, 5-Methyl-4-[2-(2,2,2-trifluoro-1-methyl-ethoxy)-pyridin-3-ylamino]-thieno[2,3-d]pyrimidine-6-carboxylic acid (4-hydroxy-ethyl)-amide] the value was 0.02 µM. Next, `Cc1c(C(=O)NCc2cn(C)cn2)sc2ncnc(Nc3cccnc3OC(C)C)c12` [Compound 36-15, 4-(2-Isopropoxypyridin-3ylamino)-5-methyl-N-((1-methyl-1H-imidazol-4-yl)methyl) thieno[2,3-d]pyrimidine-6-carboxamide]: 0.024 µM; `Cc1c(C(=O)NCCO)sc2ncnc(Nc3ccc(F)cc3OC(C)CNC(=O)OC(C)(C)C)c12` (stereo not shown) [Compound 1-5, tert-Butyl 2-(5-fluoro-2-(6-(2-hydroxyethyl-carbamoyl)-5-methylthieno[2,3-d]-pyrimidin-4-yl-amino)-phenoxy)propyl-carbamate]: 0.459 µM; `Cc1c(C(N)=O)sc2ncnc(Nc3ccc(F)cc3OCCO)c12` [Compound 32-32]: 0.027 µM. Turning to `CNC(=O)CNC(=O)c1sc2ncnc(Nc3cccnc3OC(C)C)c2c1C` [Compound 36-7, 4-(2-Isopropoxypyridin-3ylamino)-5-methyl-N-(2-(methylamino)-2-oxoethyl)thieno[2,3-d]pyrimidine-6-carboxamide], the IC50 came to 0.027 µM.

For orientation: IC50 means the concentration that gives 50% inhibition.
